# From article doi:10.1101/2025.02.25.640225v1 (biorxiv, 2025)
# How the values were obtained:
# [1] = target: DapE (Mycobacterium tuberculosis, UniProt P9WHS9)
# [2] = target: Rv1723 (Mycobacterium tuberculosis, UniProt P71981)
# [3] = target: Rv0309 (Mycobacterium tuberculosis, UniProt O07236)
# Rv0309, sequence (O07236 19-218 limits assumed): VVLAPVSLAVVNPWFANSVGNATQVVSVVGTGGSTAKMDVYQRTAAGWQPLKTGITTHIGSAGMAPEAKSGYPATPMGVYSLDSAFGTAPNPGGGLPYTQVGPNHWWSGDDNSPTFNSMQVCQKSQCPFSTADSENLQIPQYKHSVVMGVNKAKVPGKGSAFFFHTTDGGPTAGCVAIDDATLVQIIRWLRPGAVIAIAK
# DapE, sequence (P9WHS9 whole entry, looked up): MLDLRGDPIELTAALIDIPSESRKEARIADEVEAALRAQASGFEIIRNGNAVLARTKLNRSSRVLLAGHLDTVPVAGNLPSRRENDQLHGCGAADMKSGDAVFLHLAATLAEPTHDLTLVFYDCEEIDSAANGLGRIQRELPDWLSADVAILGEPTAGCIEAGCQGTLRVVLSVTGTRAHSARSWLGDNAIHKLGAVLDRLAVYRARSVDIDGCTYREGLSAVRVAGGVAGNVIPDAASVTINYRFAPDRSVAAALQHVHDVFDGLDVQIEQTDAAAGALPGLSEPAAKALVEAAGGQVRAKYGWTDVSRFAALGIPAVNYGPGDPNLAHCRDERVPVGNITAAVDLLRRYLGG
# Rv1723, sequence (P71981 1-415): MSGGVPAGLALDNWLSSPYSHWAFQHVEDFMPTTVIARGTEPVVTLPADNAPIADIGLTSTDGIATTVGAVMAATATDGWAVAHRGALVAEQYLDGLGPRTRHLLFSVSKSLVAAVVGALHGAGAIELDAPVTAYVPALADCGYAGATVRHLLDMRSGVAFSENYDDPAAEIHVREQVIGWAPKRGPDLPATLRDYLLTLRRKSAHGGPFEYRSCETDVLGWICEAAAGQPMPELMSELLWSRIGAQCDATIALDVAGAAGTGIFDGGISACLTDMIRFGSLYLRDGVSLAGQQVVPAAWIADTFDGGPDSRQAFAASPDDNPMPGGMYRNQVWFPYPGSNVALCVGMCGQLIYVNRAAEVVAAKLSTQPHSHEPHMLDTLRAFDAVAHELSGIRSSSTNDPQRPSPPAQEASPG
smiles,measurement,setting,value
C[C@@H](O)[C@H]1C(=O)N2C(C(=O)O)=C(S[C@H]3C[C@@H](C(=O)N(C)C)N(C(=O)CCCCC[N+]4=C(/C=C/C=C/C=C5/N(C)c6ccc(S(=O)(=O)O)cc6C5(C)C)C(C)(C)c5cc(S(=O)(=O)[O-])ccc54)C3)[C@H](C)[C@H]12 [Mero-sCy5],fluorescent gel labelling (SDS-PAGE),[1],Mero-sCy5 labeled all enzymes
CO[C@@]1(NC(=O)Cc2cccs2)C(=O)N2C(C(=O)O)=C(COC(N)=O)CS[C@@H]21 [cefoxitin],native MS (acyl-enzyme),[2],binding to cefoxitin was only partial
C[C@@H](O)[C@H]1C(=O)N2C(C(=O)O)=C(S[C@@H]3CN[C@H](C(=O)N(C)C)C3)[C@H](C)[C@H]12 [meropenem],native MS (acyl-enzyme); competition of Mero-sCy5 labelling; inhibition of nitro,[3],Rv0309 partially bound meropenem
